Data reported in PMC7551932 (Toxins, 2020).
“Also recorded” adds a separate entry of the source. Where a SMILES comes first, the peptide text is derived from it. Bridges are numbered along the chain shown (N, C = ends). Where no end group is shown, it is not given here.

How the values were obtained:
rNaV1.2 = target: T1, rNaV1.2 (Rattus norvegicus, UniProt P04775); assay: cell-based; format: cell-based
T1 construct: expressed in transfected cells; host or cells: HEK293T

rNaV1.3 = target: T2, rNaV1.3 (Rattus norvegicus, UniProt P08104); assay: cell-based; format: cell-based
T2 construct: expressed in transfected cells; host or cells: HEK293T
T2 sequence (P08104 whole entry): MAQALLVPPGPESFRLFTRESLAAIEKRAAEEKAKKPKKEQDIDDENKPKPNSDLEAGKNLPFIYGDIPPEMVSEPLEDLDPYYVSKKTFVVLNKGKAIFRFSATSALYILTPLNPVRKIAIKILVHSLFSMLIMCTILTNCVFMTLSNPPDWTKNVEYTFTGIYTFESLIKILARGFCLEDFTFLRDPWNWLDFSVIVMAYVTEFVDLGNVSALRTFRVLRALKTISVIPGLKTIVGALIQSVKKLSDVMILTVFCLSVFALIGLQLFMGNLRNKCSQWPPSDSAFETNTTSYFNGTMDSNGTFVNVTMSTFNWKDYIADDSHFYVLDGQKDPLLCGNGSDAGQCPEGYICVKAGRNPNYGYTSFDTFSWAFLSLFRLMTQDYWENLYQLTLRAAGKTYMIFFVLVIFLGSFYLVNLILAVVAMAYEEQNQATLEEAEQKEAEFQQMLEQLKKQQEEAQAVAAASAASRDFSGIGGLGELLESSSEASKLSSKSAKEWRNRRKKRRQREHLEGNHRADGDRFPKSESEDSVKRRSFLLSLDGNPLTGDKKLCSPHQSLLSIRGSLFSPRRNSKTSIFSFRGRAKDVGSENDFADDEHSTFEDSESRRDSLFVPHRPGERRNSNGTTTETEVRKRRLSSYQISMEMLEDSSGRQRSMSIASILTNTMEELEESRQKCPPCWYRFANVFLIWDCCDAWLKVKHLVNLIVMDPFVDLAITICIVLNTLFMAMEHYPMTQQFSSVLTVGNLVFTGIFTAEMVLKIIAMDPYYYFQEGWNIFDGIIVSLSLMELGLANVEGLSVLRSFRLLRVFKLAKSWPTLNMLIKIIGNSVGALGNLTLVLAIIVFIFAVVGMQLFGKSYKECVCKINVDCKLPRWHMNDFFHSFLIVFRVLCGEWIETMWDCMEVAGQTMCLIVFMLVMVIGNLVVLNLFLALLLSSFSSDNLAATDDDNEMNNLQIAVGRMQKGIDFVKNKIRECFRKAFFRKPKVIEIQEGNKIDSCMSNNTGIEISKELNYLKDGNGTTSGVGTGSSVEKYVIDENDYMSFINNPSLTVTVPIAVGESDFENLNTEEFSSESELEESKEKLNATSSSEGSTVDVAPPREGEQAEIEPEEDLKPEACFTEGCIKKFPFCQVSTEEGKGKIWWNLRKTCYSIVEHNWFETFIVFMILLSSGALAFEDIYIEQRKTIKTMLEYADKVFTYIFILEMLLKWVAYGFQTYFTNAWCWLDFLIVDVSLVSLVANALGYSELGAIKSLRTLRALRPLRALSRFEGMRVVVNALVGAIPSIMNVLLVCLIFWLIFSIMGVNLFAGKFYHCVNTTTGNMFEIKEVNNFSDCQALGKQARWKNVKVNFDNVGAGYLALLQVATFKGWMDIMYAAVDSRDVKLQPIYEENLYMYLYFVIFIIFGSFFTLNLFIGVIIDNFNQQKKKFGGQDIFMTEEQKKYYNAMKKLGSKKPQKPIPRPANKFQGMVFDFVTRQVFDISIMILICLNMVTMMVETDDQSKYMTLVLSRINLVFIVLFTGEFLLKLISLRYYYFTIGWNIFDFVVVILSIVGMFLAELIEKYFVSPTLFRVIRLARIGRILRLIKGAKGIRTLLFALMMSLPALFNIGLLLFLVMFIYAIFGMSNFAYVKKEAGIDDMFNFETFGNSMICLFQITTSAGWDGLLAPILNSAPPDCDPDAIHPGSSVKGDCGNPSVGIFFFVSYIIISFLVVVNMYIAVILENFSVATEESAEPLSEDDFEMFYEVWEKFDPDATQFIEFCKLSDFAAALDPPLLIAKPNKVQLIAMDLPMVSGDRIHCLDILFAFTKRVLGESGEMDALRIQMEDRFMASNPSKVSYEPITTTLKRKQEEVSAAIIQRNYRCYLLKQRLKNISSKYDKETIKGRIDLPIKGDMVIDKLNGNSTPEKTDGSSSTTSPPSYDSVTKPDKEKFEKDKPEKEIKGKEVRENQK

rNaV1.4 = target: T3, rNaV1.4 (Rattus norvegicus, UniProt P15390); assay: cell-based; format: cell-based
T3 construct: expressed in transfected cells; host or cells: HEK293T

mNaV1.6 = target: T4, mNaV1.6 (Mus musculus, UniProt Q9WTU3); assay: cell-based; format: cell-based
T4 construct: expressed in transfected cells; host or cells: HEK293T

hNaV1.7 = target: T5, hNaV1.7 (Homo sapiens, UniProt Q15858); assay: cell-based; format: cell-based
T5 construct: expressed in transfected cells; host or cells: HEK293T
T5 sequence (Q15858 other isoform, or with tags, fused parts or gaps): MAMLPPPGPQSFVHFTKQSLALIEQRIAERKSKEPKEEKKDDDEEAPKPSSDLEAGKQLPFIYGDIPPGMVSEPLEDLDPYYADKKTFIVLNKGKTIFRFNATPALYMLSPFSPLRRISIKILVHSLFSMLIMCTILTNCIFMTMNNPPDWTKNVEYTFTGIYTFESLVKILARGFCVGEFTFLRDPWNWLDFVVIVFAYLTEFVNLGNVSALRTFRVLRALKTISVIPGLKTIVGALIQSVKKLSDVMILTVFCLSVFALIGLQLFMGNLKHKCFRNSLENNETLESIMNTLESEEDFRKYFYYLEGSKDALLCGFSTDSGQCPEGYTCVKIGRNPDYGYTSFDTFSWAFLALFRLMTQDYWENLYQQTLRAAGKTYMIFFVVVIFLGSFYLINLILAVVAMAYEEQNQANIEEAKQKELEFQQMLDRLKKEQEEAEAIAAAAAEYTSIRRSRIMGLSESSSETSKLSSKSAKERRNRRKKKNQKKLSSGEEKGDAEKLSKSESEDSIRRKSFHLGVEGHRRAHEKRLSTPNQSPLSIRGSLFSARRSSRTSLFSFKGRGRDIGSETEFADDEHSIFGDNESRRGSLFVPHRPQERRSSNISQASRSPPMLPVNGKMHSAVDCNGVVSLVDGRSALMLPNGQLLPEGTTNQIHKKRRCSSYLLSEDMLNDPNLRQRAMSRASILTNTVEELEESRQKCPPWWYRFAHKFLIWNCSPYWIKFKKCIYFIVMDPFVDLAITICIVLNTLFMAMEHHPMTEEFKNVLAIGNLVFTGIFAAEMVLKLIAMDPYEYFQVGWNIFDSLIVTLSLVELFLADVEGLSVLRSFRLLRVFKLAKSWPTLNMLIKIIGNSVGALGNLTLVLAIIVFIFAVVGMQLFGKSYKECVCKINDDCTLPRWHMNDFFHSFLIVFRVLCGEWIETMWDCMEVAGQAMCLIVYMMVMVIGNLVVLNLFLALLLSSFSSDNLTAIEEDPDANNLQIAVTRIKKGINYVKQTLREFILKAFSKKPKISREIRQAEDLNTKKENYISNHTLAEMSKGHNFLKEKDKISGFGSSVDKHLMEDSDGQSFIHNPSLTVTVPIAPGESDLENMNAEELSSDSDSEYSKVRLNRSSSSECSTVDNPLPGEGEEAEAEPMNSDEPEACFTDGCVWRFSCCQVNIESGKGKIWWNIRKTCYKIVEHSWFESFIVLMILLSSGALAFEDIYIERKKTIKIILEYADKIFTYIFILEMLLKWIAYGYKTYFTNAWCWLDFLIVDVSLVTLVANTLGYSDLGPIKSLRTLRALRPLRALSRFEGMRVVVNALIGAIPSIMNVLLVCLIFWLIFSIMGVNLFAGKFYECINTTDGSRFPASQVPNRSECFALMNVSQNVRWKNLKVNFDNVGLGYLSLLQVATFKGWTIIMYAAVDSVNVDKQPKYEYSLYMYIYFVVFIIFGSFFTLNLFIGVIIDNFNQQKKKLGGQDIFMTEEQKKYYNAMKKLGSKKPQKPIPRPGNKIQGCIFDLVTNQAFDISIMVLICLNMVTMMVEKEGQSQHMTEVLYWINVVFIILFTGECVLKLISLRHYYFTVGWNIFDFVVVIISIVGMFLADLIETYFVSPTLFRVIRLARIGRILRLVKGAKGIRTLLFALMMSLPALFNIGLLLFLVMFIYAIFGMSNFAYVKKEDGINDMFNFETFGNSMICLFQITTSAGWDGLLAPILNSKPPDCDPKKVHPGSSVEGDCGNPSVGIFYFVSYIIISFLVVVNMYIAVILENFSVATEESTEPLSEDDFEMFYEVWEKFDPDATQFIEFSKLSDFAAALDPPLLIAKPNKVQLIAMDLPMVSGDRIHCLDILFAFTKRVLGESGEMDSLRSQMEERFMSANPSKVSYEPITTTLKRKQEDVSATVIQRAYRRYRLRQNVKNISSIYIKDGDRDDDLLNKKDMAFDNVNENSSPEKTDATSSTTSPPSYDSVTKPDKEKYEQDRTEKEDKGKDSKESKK
T5 sequence (O60939 30-215, further chain): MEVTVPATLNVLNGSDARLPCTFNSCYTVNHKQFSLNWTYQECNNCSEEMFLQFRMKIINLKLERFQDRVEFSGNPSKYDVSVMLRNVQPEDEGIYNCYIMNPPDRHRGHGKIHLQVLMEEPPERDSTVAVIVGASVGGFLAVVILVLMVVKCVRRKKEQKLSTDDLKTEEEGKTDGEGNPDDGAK
T5 sequence (Q07699 19-218, further chain): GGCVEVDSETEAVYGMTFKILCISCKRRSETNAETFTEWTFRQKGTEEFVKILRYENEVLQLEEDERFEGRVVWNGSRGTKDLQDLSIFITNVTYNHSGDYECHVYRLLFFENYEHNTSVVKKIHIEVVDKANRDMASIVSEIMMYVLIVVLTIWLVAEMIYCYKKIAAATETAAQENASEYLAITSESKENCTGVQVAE

hNaV1.5 = format: cell-based, human
rNaV1.8 = format: cell-based, rat
hNaV1.9 = format: cell-based, human
[1] = tested on: TTX-S sodium channels (NaV1.2–1.4, NaV1.6, and NaV1.7); format: cell-based
[2] = tested on: TTX-R sodium channels (NaV1.5, NaV1.8, and NaV1.9); format: cell-based
NaV1.7 over NaV1.4 = assay: Selectivity of NaV1.7 over NaV1.4; format: cell-based; settings: Cl6a
NaV1.7 [3] = target: T6, NaV1.7 (Homo sapiens, UniProt Q15858); assay: Time course of block and washout of NaV1.7 peak current; settings: 100 nM toxin, n = 3
T6 sequence (Q07699 19-218): as the sequence (Q07699 19-218, further chain) above
T6 sequence (Q15858 other isoform, or with tags, fused parts or gaps): as the sequence (Q15858 other isoform, or with tags, fused parts or gaps) above
T6 sequence (O60939 30-215, further chain): as the sequence (O60939 30-215, further chain) above

NaV1.7 [4] = target: T6, NaV1.7; assay: NaV1.7 gating kinetics (I–V, activation, inactivation, repriming); settings: 10 nM toxin; for Reduction of NaV1.7 channel current: at –5 mV, n = 10
N-type calcium channels = settings: cited from earlier work
[5] = tested on: TTX-sensitive sodium channel; settings: cited from earlier work
NaV1.7 [6] = settings: cited from earlier work

Molecule: CC[C@H](C)[C@H](NC(=O)[C@H](CCCCN)NC(=O)[C@H](Cc1c[nH]c2ccccc12)NC(=O)[C@H](CCCCN)NC(=O)[C@@H]1CSSC[C@@H]2NC(=O)[C@H](CCC(=O)O)NC(=O)[C@H](CC(N)=O)NC(=O)[C@H](CCCCN)NC(=O)CNC(=O)[C@@H]3CCCN3C(=O)[C@H]([C@@H](C)O)NC(=O)[C@@H]3CSSC[C@H](NC(=O)[C@H](C(C)C)NC(=O)[C@H](CCCNC(=N)N)NC(=O)[C@H](CC(N)=O)NC(=O)[C@@H]4CCCN4C(=O)[C@H](CSSC[C@H](NC(=O)[C@H](C)N)C(=O)N[C@@H](CCCCN)C(=O)NCC(=O)N[C@@H](C(C)C)C(=O)N[C@@H](Cc4ccccc4)C(=O)N[C@@H](CC(=O)O)C(=O)N4CCC[C@H]4C(=O)N3)NC2=O)C(=O)N[C@@H](CO)C(=O)N[C@@H](CC(=O)O)C(=O)N[C@@H](CCCCN)C(=O)N[C@@H](Cc2c[nH]cn2)C(=O)N[C@@H](CCCCN)C(=O)N[C@@H](Cc2c[nH]c3ccccc23)C(=O)N1)C(=O)O [Cl6a] (H-ACKGVFDPCTPGKNECCPNRVCSDKHKWCKWKI-OH; disulfide 2-17, 9-22, 16-29; N-terminus and C-terminus assumed)
- IC50 (rNaV1.2): 56.1 ± 13.6 nM
- Inhibition of rNaV1.2 current (rNaV1.2): decreased
- IC50 (rNaV1.3): 75.9 ± 6.3 nM
- Inhibition of rNaV1.3 current (rNaV1.3): decreased
- IC50 (rNaV1.4): 480 ± 100 nM
- Inhibition of rNaV1.4 current (rNaV1.4): decreased
- IC50 (mNaV1.6): 9.2 ± 1.3 nM
- Inhibition of mNaV1.6 current (mNaV1.6): completely inhibited
- IC50 (hNaV1.7): 11 ± 2.5 nM
- Inhibition of hNaV1.7 current (hNaV1.7): completely inhibited
- Inhibition of hNaV1.5 current (hNaV1.5): No inhibitory effects
- Inhibition of rNaV1.8 current (rNaV1.8): No inhibitory effects
- Inhibition of hNaV1.9 current (hNaV1.9): No inhibitory effects
- Inhibition of TTX-S sodium channels [1]: can inhibit TTX-S, but not TTX-R, sodium channels; also recorded: inhibitors of tetrodotoxin-sensitive (TTX-S), but not TTX-resistant, sodium channels; also recorded: inhibited TTX-S (NaV1.2–1.4, NaV1.6, and NaV1.7)
- Inhibition of TTX-R sodium channels [2]: not TTX-R (NaV1.5, NaV1.8, and NaV1.9)
- Fold selectivity over NaV1.4 (NaV1.7 over NaV1.4): ~ 40 fold
- Reversibility of NaV1.7 inhibition on washing (NaV1.7 [3]; 5 min wash with bath solution): irreversibly inhibit NaV1.7 channel currents; also recorded: irreversible; also recorded: sustained inhibition of NaV1.7 channel currents
- τon (onset of NaV1.7 peak current inhibition) (NaV1.7 [3]; mean ± SEM): 36.2 ± 5.3 s
- Voltage dependence of activation, k (toxin) (NaV1.7 [4]; NaV1.7, mean ± SEM, n = 6–10, control 6.2 ± 0.3 (Cl6a), 6.7 ± 0.4 (Cl6b)): 7.3 ± 0.4 mV
- Voltage dependence of inactivation, k (toxin) (NaV1.7 [4]; NaV1.7, mean ± SEM, n = 6–10, control −5.4 ± 0.3 (Cl6a), −5.2 ± 0.3 (Cl6b)): −5.7 ± 0.4 mV
- Voltage dependence of activation, V1/2 (toxin) (NaV1.7 [4]; NaV1.7, mean ± SEM, n = 6–10, control −19.5 ± 1.5 (Cl6a), −16.3 ± 0.4 (Cl6b)): −22.3 ± 1.7 mV
- Voltage dependence of inactivation, V1/2 (toxin) (NaV1.7 [4]; NaV1.7, mean ± SEM, n = 6–10, control −78.3 ± 1.8 (Cl6a), −70.1 ± 1.5 (Cl6b)): −81.6 ± 2.4 mV
- Repriming (toxin) (NaV1.7 [4]; NaV1.7, recovery at −100 mV, test pulse −10 mV, mean ± SEM, n = 9 (Cl6a), n = 7 (Cl6b), control 14.9 ± 2.4 (Cl6a), 6.3 ± 0.9 (Cl6b)): 17.6 ± 2.5 ms
- Reduction of NaV1.7 channel current (NaV1.7 [4]): 52.3%
- Effect on NaV1.7 activation and inactivation (gating) (NaV1.7 [4]; n = 6–10): does not alter channel activation, inactivation, or repriming kinetics; also recorded: cannot significantly change the activation kinetics

Molecule: CC[C@H](C)[C@H](NC(=O)[C@H](CCCCN)NC(=O)[C@H](Cc1ccc(O)cc1)NC(=O)[C@H](CCCCN)NC(=O)[C@@H]1CSSC[C@@H]2NC(=O)[C@H](CCC(=O)O)NC(=O)[C@H](CC(=O)O)NC(=O)[C@H](CCCCN)NC(=O)CNC(=O)[C@@H]3CCCN3C(=O)[C@H]([C@@H](C)O)NC(=O)[C@@H]3CSSC[C@H](NC(=O)[C@H](C(C)C)NC(=O)[C@H](Cc4c[nH]cn4)NC(=O)[C@H](CC(N)=O)NC(=O)[C@@H]4CCCN4C(=O)[C@H](CSSC[C@H](NC(=O)[C@H](C)N)C(=O)N[C@@H](CCCCN)C(=O)NCC(=O)N[C@@H]([C@@H](C)CC)C(=O)N[C@@H](Cc4ccccc4)C(=O)N[C@@H](C(C)C)C(=O)N[C@@H]([C@@H](C)O)C(=O)N3)NC2=O)C(=O)N[C@@H](CO)C(=O)N[C@@H](CO)C(=O)N[C@@H](CCCCN)C(=O)N[C@@H](Cc2c[nH]cn2)C(=O)N[C@@H](CCCCN)C(=O)N[C@@H](Cc2c[nH]c3ccccc23)C(=O)N1)C(=O)O [Cl6b] (H-ACKGIFVTCTPGKDECCPNHVCSSKHKWCKYKI-OH; disulfide 2-17, 9-22, 16-29)
- Reduction of NaV1.7 channel current (NaV1.7 [4]): 49.7%

Molecule: HWTX-I (ACKGVFDACTPGKNECCPNRVCSDKHKWCKWKL; ends and bridges not checked; cysteine pairing not given here; UniProt P56676 49-81, looked up)
- N-type calcium channel inhibition (N-type calcium channels): inhibitor of N-type calcium channels
- TTX-sensitive sodium channel inhibition [5]: inhibitor of N-type calcium channels and a TTX-sensitive sodium channel

Molecule: HWTX-IV
- Binding site on NaV1.7 (NaV1.7 [6]): site 4 toxins that interact with the DII S3–S4 linker of NaV1.7 channels
